# Experimental data: patent EP0531640B1, “Antibiotic LL-E19020 Gamma” (F. HOFFMANN-LA ROCHE AG, priority 1991, dated 1993)
# Experiments:
# [1] = Growth of chickens and efficiency of feed utilization; assay type: in vivo, Peterson X Arbor Acres chicks; conditions: 25 ppm in the diet
# Method: In this test, one day old Peterson X Arbor Acres chicks are sorted into equal weight groups of 5 males and 5 females per cage. Cages are randomized to treatment groups with six replicates per treatment. The test compound is evaluated 25 ppm in the diet against chicks receiving a non-medicated diet and a diet containing 200 ppm of penicillin as a positive control.
# The cages are weighed at day 1 and at day 14 and feed consumption is measured on weigh days. Feed and water are offered ad libitum and lighting and supplemental heat are provided continuously.
# The poultry diet employed in the test is as follows:
# The vitamin-amino acid premix in the above feed composition is prepared from the following formulation. The expressions of quantity relate to units per kilogram of the finished feed composition.
# [2] = system: staphylococci and enterococci; assay: MIC by agar dilution, summary for staphylococci and enterococci; assay type: cell-based; conditions: 18 h; text summary: poor to moderate activity vs staphylococci and enterococci
# Method: (§1) The in vitro antibacterial activity of LL-E19020 Gamma is determined against a spectrum of gram positive and gram negative bacteria by a standard agar dilution method. Mueller-Hinton agar containing 5% sheep blood and two-fold decreasing concentrations of LL-E19020 Gamma is poured into petri dishes. The agar surfaces are inoculated with 1 to 5X10^4 colony forming units of bacteria by means of the Steers replicating device. The lowest concentration of antibiotic that inhibits growth of a bacterial strain after 18 hours incubation is recorded as the minimal inhibitory concentration for that strain.
# (§2) • 1. Serial two-flow dilutions of drug are prepared in Mueller-Hinton broth in a range of 2560 µg/ml-0.15 µg/ml plus a solvent control. • 2. Two milliliters of drug dilution (10X) are added to sterile screw cap bottles to which 18 ml of Mueller-Hinton agar containing 5.6% defibrinated sheep blood is added. Final drug concentration ranges 256 µg/ml-0.015 µg/ml in agar containing 5% sheep blood. • 3. A few isolated colonies of each test organism are inoculated into 5 ml trypticase soy broth or brain heart infusion broth. The cultures are shaken at 35 °C. for 5 hours. • 4. Each culture is diluted 1:50 (10^-1.7) in Mueller-Hinton broth and applied to agar plates using a Steers replicator. Control plates should be seeded last to ensure that viable organisms are present throughout the procedure. […]
# gram negative bacteria = assay: MIC by agar dilution, summary for gram-negative bacteria; assay type: cell-based; conditions: 18 h; text summary: no gram-negative activity
# Method: as §1, §2
# [3] = system: Staphylococcus aureus Smith; assay: In vivo antibacterial activity, acute lethal infection in mice; conditions: for Survival Ratio 7 Days After Infection With S. aureus Smith: mice, 30 minutes after infection
# Method: (§3) The in vivo antibacterial activity of antibiotic LL-E19020 Gamma is established by infecting female CD-1 mice from Charles River Laboratories, weighing 20±2 g each, intraperitoneally with either 2.0 X 10^2 CFU/0.5 ml Streptococcus pyogenes C203 suspended in broth or 2.8 X 10^6 CFU/0.5 ml Straphylococcus aureus Smith suspended in 5% hog gastric mucin. The mice were treated subcutaneously, 30 minutes after infection with the indicated dose of the test compound in 0.5 ml of 0.2% aqueous agar. Toxicity studies were performed administering the same treatment to uninfected mice.
# [4] = system: Streptococcus pyogenes C203; assay: as above; conditions: for Survival Ratio 7 Days After Infection With S. pyogenes C203: mice, 30 minutes after infection
# Method: as §3
# [5] = In vivo toxicity in uninfected mice; conditions: for In Vivo Toxicity: Survival Ratio 7 Days After Administration Of Single Subcutaneous Dose: uninfected mice
# Method: as §3
# [6] = Single Subcutaneous Dose 0.5 MG/KG
# [7] = Single Subcutaneous Dose 1 MG/KG
# [8] = Single Subcutaneous Dose 2 MG/KG
# [9] = Single Subcutaneous Dose 4 MG/KG
# [10] = Single Subcutaneous Dose 8 MG/KG
# [11] = Single Subcutaneous Dose 16 MG/KG
structure (smiles),measurement,setting,value
C/C=C\C=C\C1OC(O)(C(COC2CC(OC)C(OC3CC(OC)C(OC4CC(OC)C(O)C(C)O4)C(C)O3)C(C)O2)C(=O)NC/C=C/C=C(\C)C(OC)C(C)C2CC(O)C(/C=C/C=C/C=C/C(=O)O)O2)C(OC(=O)Cc2ccc(O)cc2)C(O)C1(C)C (stereo not shown) [LL-E19020 Gamma],Weight Gain,"[1]; chicks, day 1 to day 14",342 g
same,"Weight Gain, % improvement over control","[1]; chicks, day 1 to day 14",6.5%
same,feed conversion,"[1]; chicks, day 1 to day 14",1.297
same,"feed conversion, % improvement over control","[1]; chicks, day 1 to day 14",1.9%
same,"efficiency of feed utilization, result in words",[1]; over unmedicated controls,increased the efficiency of feed utilization
same,"weight gain of chicks, result in words",[1]; over unmedicated controls,improved weight gain of chicks
same,MIC,[2],8 to 128 µg/mL
same,MIC,gram negative bacteria,> 128 µg/mL
same,Survival Ratio 7 Days After Infection With S. aureus Smith,[3]; [6],0/5
same,Survival Ratio 7 Days After Infection With S. aureus Smith,[3]; [7],0/5
same,Survival Ratio 7 Days After Infection With S. aureus Smith,[3]; [8],0/5
same,Survival Ratio 7 Days After Infection With S. aureus Smith,[3]; [9],0/5
same,Survival Ratio 7 Days After Infection With S. aureus Smith,[3]; [10],0/5
same,Survival Ratio 7 Days After Infection With S. aureus Smith,[3]; [11],0/5
same,Survival Ratio 7 Days After Infection With S. aureus Smith,[3]; Single Subcutaneous Dose 32 MG/KG,0/5
same,Survival Ratio 7 Days After Infection With S. aureus Smith,[3]; Single Subcutaneous Dose 64 MG/KG,0/5
same,ED50,"[3]; sc, acute lethal infection in mice, Staphylococcus aureus Smith, single subcutaneous dose, read-out: approximate ED50",> 64 mg/kg
same,Survival Ratio 7 Days After Infection With S. pyogenes C203,[4]; [6],0/5
same,Survival Ratio 7 Days After Infection With S. pyogenes C203,[4]; [7],0/5
same,Survival Ratio 7 Days After Infection With S. pyogenes C203,[4]; [8],0/5
same,Survival Ratio 7 Days After Infection With S. pyogenes C203,[4]; [9],1/5
same,Survival Ratio 7 Days After Infection With S. pyogenes C203,[4]; [10],3/5
same,Survival Ratio 7 Days After Infection With S. pyogenes C203,[4]; [11],4/5
same,ED50,"[4]; sc, acute lethal infection in mice, Streptococcus pyogenes C203, single subcutaneous dose, read-out: approximate ED50",4 to 8 mg/kg
same,toxic symptoms,[5]; dosed subcutaneously at the same levels used in the protection study (0.5-64 mg/kg),did not exhibit toxic symptoms
same,In Vivo Toxicity: Survival Ratio 7 Days After Administration Of Single Subcutaneous Dose,[5]; 0.5 MG/KG,2/2
same,In Vivo Toxicity: Survival Ratio 7 Days After Administration Of Single Subcutaneous Dose,[5]; 1 MG/KG,2/2
same,In Vivo Toxicity: Survival Ratio 7 Days After Administration Of Single Subcutaneous Dose,[5]; 2 MG/KG,2/2
same,In Vivo Toxicity: Survival Ratio 7 Days After Administration Of Single Subcutaneous Dose,[5]; 4 MG/KG,2/2
same,In Vivo Toxicity: Survival Ratio 7 Days After Administration Of Single Subcutaneous Dose,[5]; 8 MG/KG,2/2
same,In Vivo Toxicity: Survival Ratio 7 Days After Administration Of Single Subcutaneous Dose,[5]; 16 MG/KG,2/2
